From a polymer gas permeability compilation

CH4 permeability [Barrer]	CO2 permeability [Barrer]	H2 permeability [Barrer]	N2 permeability [Barrer]	O2 permeability [Barrer]	Compound
10000	18000	8500	3400	5400	*C(=C(*)c1ccc2c(c1)C(C)(C)c1cc([Si](C)(C)C)ccc1-2)c1ccccc1 (repeat unit)
0.84	16.6	–	0.95	4.25	*c1ccc(-c2ccc(Oc3ccc(C4(c5ccc(Oc6ccc(-c7ccc(N8C(=O)c9ccc(Oc%10ccc(C(C)(C)c%11ccc(Oc%12ccc%13c(c%12)C(=O)N(*)C%13=O)cc%11)cc%10)cc9C8=O)cc7)cc6C(F)(F)F)cc5)c5ccccc5C(=O)N4c4ccccc4)cc3)c(C(F)(F)F)c2)cc1 (repeat unit)
1.52	44.7	–	2.36	12.2	*c1ccc(-c2ccc(Oc3ccc4c(c3)C(C)(c3ccc(Oc5ccc(-c6ccc(-n7c(=O)c8cc9c(=O)n(*)c(=O)c9cc8c7=O)cc6)cc5C(F)(F)F)cc3)CC4(C)C)c(C(F)(F)F)c2)cc1 (repeat unit)
0.41	22.6	–	1.12	13.1	*c1ccc(-c2ccc(Oc3ccc4c(c3)C3(CC4(C)C)CC(C)(C)c4ccc(Oc5ccc(-c6ccc(N7C(=O)c8ccc(Oc9ccc%10c(c9)C(=O)N(*)C%10=O)cc8C7=O)cc6)cc5C(F)(F)F)cc43)c(C(F)(F)F)c2)cc1 (repeat unit)
0.09	5.2	–	0.14	1.16	*c1ccc(-c2nnc(-c3cccc(-c4nnc(*)n4-c4ccccc4)c3)n2-c2ccccc2)cc1 (repeat unit)
0.07	2.91	12.2	0.13	0.6	*c1ccc(C(C)(C)c2ccc(-c3nc4cc(-c5ccc6[nH]c(*)nc6c5)ccc4[nH]3)cc2)cc1 (repeat unit)
0.698	30	–	1.34	7.5	*c1ccc(C(C)(C)c2ccc(N3C(=O)c4ccc(C(c5ccc6c(c5)C(=O)N(*)C6=O)(C(F)(F)F)C(F)(F)F)cc4C3=O)cc2)cc1 (repeat unit)
0.0692	2.65	9.33	0.104	0.586	*c1ccc(C(C)(C)c2ccc(N3C(=O)c4ccc(Oc5ccc(Oc6ccc7c(c6)C(=O)N(*)C7=O)cc5)cc4C3=O)cc2)cc1 (repeat unit)
6.69	268	–	10.2	–	*c1ccc(C(c2ccc(-c3nnc(*)n3-c3ccc(O)cc3)cc2)(C(F)(F)F)C(F)(F)F)cc1 (repeat unit)
4.55	123	–	6.1	–	*c1ccc(C(c2ccc(-c3nnc(*)o3)cc2)(C(F)(F)F)C(F)(F)F)cc1 (repeat unit)
0.78	27.7	59.1	1.39	7.1	*c1ccc(C(c2ccc(-n3c(=O)c4cc5c(=O)n(*)c(=O)c5cc4c3=O)cc2)(C(F)(F)F)C(F)(F)F)cc1 (repeat unit)
27	520	360	23	85	*c1ccc(C(c2ccc(-n3c(=O)c4cc5oc6cc7c(cc6oc5cc4c3=O)C3(CC(C)(C)c4cc5oc6cc8c(=O)n(*)c(=O)c8cc6oc5cc43)CC7(C)C)cc2)(C(F)(F)F)C(F)(F)F)cc1 (repeat unit)
0.611	22.1	–	0.979	5.22	*c1ccc(C(c2ccc(N3C(=O)c4ccc(-c5ccc6c(c5)C(=O)N(*)C6=O)cc4C3=O)cc2)(C(F)(F)F)C(F)(F)F)cc1 (repeat unit)

Compound	CH4 permeability [Barrer]	CO2 permeability [Barrer]	H2 permeability [Barrer]	N2 permeability [Barrer]	O2 permeability [Barrer]
*/C(C)=C(/*)[Si](C)(C)CCCC (repeat unit)	17	100	65	8	29
